Patent US20210223230A1, “Neamine Compositions and Methods of Use Thereof” (President and Fellows of Harvard College, priority 2008, published 2021)
“And” between values parts separate entries of the source, which are not always exact repeats. Identical values can stand only once. “Also recorded” adds a separate entry of the source. Like-named read-outs stand apart in the source and are kept apart here.

Tests used:
LNCaP cells = assay: LNCaP cell proliferation in phenol red-free and steroid-free medium; type: cell-based, human; details: ANG 0.1 μg/ml, DHT 10 nM
Experimental: (a) ANG stimulates LNCaP cell proliferation in the absence of androgens. Cells were culture in phenol red-free and charcoal/dextran-stripped (steroid-free) FBS for 2 day and stimulated with DHT (10 nM), ANG (0.1 μg/ml), or a mixture of the two for the time indicated. (b) Dose dependence. ANG was added to the cells and cultured for 4 days. (c) Anti-ANG mAb 26-2F inhibits DHT-induced cell proliferation. LNCaP cells were stimulated with 10 nM DHT in the presence of 26-2F or a control non-immune IgG for 3 days. (d) ANG over-expression promotes LNCaP proliferation in vitro. The vector control (pCI-Neo) and ANG transfectants (pCI-ANG) were cultured in phenol red-free and steroid-free medium for the time indicated. (e) Xenograft growth in castrated SCID mice. A mixture of 70 μl cell suspension (1×10^6 cells) and 30 μl Matrigel was injected s.c. per mouse (8 per group). The mice were castrated or sham-operated at the same time. Tumors were inspected and measured twice a week and the animals were sacrificed after 8 weeks of observation. (f) Endogenous ANG of LNCaP cells is essential for androgen-induced rRNA transcription. LNCaP cells were cultured in phenol red-free and steroid-free medium and incubated with DHT (10 nM), ANG (0.1 μg/ml), anti-ANG mAb 26-2F (60 μg/ml) or a mixture of DHT and 26-2F for 2 h. […]

ANG [1] = assay: Nuclear translocation of ANG; type: cell-based; details: inhibitors tested
ANG [2] = biological target: ANG (Homo sapiens, UniProt P03950); details: screen of 18,310 compounds; cited from earlier work
ANG (Homo sapiens, UniProt P03950), sequence (P03950 25-147): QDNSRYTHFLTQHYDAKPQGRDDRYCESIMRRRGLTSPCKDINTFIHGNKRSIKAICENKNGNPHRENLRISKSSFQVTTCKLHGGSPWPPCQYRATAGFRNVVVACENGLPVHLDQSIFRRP

[3] = test system: PC-3 human prostate cancer cells; details: nude mice, literature; cited from earlier work
AKT-induced PIN = assay: Prevention of AKT-induced PIN in 4-week-old MPAKT mice by small-molecule ANG inhibitors; details: for 47S rRNA level / transcription (ISH) / AKT phosphorylation (IHC) / localization of ANG in prostate epithelial cells (IHC) / PIN formation (H&E): daily i.p. 4 weeks from week 4; for PIN formation (H&E): neamine, neomycin 10 mg/kg, N65828 4 mg/kg
established PIN = assay: Reversal of established PIN in 12-week-old MPAKT mice; type: in vivo; details: for AKT expression and phosphorylation (IHC) / established PIN phenotype (H&E) / rRNA transcription / 47S rRNA level (ISH): daily i.p. 4 weeks from week 12; for apoptotic index: neomycin 10 mg/kg, N65828 4 mg/kg daily i.p. 4 weeks from week 12, control 0.95±0.11
ANG [4] = details: literature reports; cited from earlier work
angiogenesis = details: literature reports; cited from earlier work
[5] = Acute LD50 (subcutaneous) in mice; type: in vivo
[6] = test system: HT-29 human colon adenocarcinoma; details: cited from earlier work
[7] = cited from earlier work
PC-3 cell tumor tissues = assay: IHC and ISH of PC-3 xenograft tumor tissues (ANG localization, 47S rRNA, PCNA, vWF); type: in vivo, athymic mice
Experimental: PBS- and neamine-treated tumor tissues were fixed in formalin, embedded in paraffin, and sections of […] were cut. (A) Localization of ANG was determined by IHC with anti-human ANG monoclonal antibody 26-2F. […] (C) Proliferating cells were stained with an anti-PCNA monoclonal antibody (mAb). PCNA positive and total numbers of cells were counted in 5 randomly selected areas at 200× magnification. (D) Blood vessels were stained with an anti-vWF antibody and counted in five most vascularized areas at 200× magnification.

[8] = Adverse side effects in the treated mice of these studies; type: in vivo; details: 30 mg/kg s.c. and 10 mg/kg i.p.
[9] = test system: MDA-MB-435 human breast cancer cells; details: cited from earlier work
[10] = test system: PC-3 human prostate cancer cells; assay: Xenograft growth of PC-3 cell tumors in athymic mice; type: in vivo
Experimental: Male athymic mice were inoculated with 5×10^5 of PC-3 cells, and treated sub-cutaneously (s.c.) with PBS or neamine at a dose of 30 mg/kg body weight twice weekly for 8 weeks. Twelve mice were used per group. (A) Mice were examined by palpation for tumor appearance. (B) Tumor sizes were measured with a caliper and were expressed as length×width^2. At day 56, mice were sacrificed and tumor tissues were removed, photographed (C) and weighed (D).
Xenograft growth of PC-3 cell tumors. Five-week-old male athymic mice were inoculated s.c. with 100 μl of a mixture containing 5×10^5 PC-3 cells and 33 μl of Matrigel. The mice were treated s.c. with PBS or neamine (30 mg/kg) twice weekly for 8 weeks. Tumor sizes were measured every 3 days and recorded in mm^3 (Length×width^2). Mice were sacrificed at day 56 and the tumors were removed and the wet weights of the PC-3 tumors were recorded.

[11] = mouse, in vivo, sc; cited from earlier work
[12] = in vivo; cited from earlier work

C[C@]12CCC(=O)C[C@@H]1CC[C@@H]1[C@@H]2CC[C@]2(C)[C@@H](O)CC[C@@H]12 [DHT, dihydrotestosterone, reference compound]
LNCaP cell proliferation in the absence of androgens (LNCaP cells): stimulates

O=c1c(-c2ccc(O)cc2)coc2cc(O)cc(O)c12 [Genistein]
effect on nuclear translocation of ANG (ANG [1]): no detectable effect

Nc1ccc(N=Nc2ccc(-c3ccc(O)cc3)cc2)c2ccc(S(=O)(=O)O)cc12 [N65828, 8-amino-5-(4′-hydroxybiphenyl-4-ylazo)naphthalene-2-sulfonate]
selectivity of enzymatic inhibition, ANG vs RNase A (ANG [2]): preferentially inhibited | xenograft growth of PC-3 cells [3]: inhibit | 47S rRNA level / transcription (ISH) (AKT-induced PIN): inhibited | AKT phosphorylation (IHC) (AKT-induced PIN): not altered | localization of ANG in prostate epithelial cells (IHC) (AKT-induced PIN): remained strongly in the nucleus | PIN formation (H&E) (AKT-induced PIN): prevented PIN formation | AKT expression and phosphorylation (IHC) (established PIN): not different from that of the control group | established PIN phenotype (H&E) (established PIN): reversed | rRNA transcription / 47S rRNA level (ISH) (established PIN): dramatically decreased | apoptotic index (established PIN): 2.02±0.21 caspase 3 positive cells per duct

COc1ccc2c(c1)CC[C@@H]1[C@@H]2CC[C@]2(C)[C@@H](NCCCCCCN3C(=O)C=CC3=O)CC[C@@H]12 [U-73122]
effect on nuclear translocation of ANG (ANG [1]): only marginally block

COc1ccc2c(c1)CC[C@@H]1[C@@H]2CC[C@]2(C)[C@@H](NCCCCCCN3C(=O)CCC3=O)CC[C@@H]12 [U-73343]
effect on nuclear translocation of ANG (ANG [1]): only marginally block

NCC[C@H](O)C(=O)N[C@@H]1C[C@H](N)[C@@H](O[C@H]2O[C@H](CN)[C@@H](O)[C@H](O)[C@H]2O)[C@H](O)[C@H]1O[C@H]1O[C@H](CO)[C@@H](O)[C@H](N)[C@H]1O [amikacin]
effect on nuclear translocation of ANG (ANG [4]): do not block | anti-angiogenic activity (angiogenesis): not anti-angiogenic

NC[C@H]1O[C@H](O[C@H]2[C@H](O)[C@@H](O)[C@H](N)C[C@@H]2N)[C@H](N)[C@@H](O)[C@@H]1O [neamine]
fold by which the 30 mg/kg dose is lower than the reported LD50 ([5]; 30 mg/kg s.c. vs LD50 1250 mg/kg): 42 fold | fold by which LD50 is higher than the highest scheduled dose ([5]; LD50 1,250 mg/kg vs 160 mg/kg): 7.8 fold | xenograft growth [6]: inhibits | nephrotoxicity relative to that of neomycin ([7]; cell and organ culture): ~5% | ototoxicity relative to that of neomycin ([7]; cell and organ culture): ~6% | toxicity relative to neomycin (fold less toxic) ([7]; toxicity profile): close to that of streptomycin and kanamycin | decrease in cell proliferation (PC-3 cell tumor tissues; from PCNA positive cells vs control): 66% | decrease in tumor angiogenesis (PC-3 cell tumor tissues; from vessel density vs control): 72.8% | PCNA positive cells (PC-3 cell tumor tissues; neamine-treated PC-3 tumors, control 75.4±6): 25.6±6.4% | vessel density (vWF) (PC-3 cell tumor tissues; neamine-treated PC-3 tumors, control 82±3.2): 22.3±9.6 vessels per mm^2 | localization of ANG in tumor cells (IHC, 26-2F) (PC-3 cell tumor tissues; neamine-treated PC-3 tumors, nuclear in untreated): most of the ANG is extracellular | 47S rRNA level (ISH) (PC-3 cell tumor tissues; neamine-treated vs control tumor tissues): decreased significantly | acute or chronic adverse side effects [8]: No acute or chronic adverse side effects; also recorded: not observed | effect on nuclear translocation of ANG (ANG [4]): comparable activity | xenograft growth [9]: inhibits | anti-angiogenic activity (angiogenesis): equally effective | 47S rRNA level / transcription (ISH) (AKT-induced PIN): decreased dramatically | AKT phosphorylation (IHC) (AKT-induced PIN): did not differ from those of controls | localization of ANG in prostate epithelial cells (IHC) (AKT-induced PIN): predominantly cytoplasmic and extracellular | PIN formation (H&E) (AKT-induced PIN): inhibited PIN formation | vessel density (CD31) in ventral prostate (AKT-induced PIN; neamine 10 mg/kg daily 4 weeks, control 11.5±4.5): 4±0.5 per mm^2 | Ki-67 positive cells (AKT-induced PIN; neamine 10 mg/kg daily 4 weeks, untreated PIN 61.1±9.3): 24.9±8.4% | percentage of PIN in the ventral prostate (AKT-induced PIN; neamine 10 mg/kg daily i.p. 4 weeks from week 4, control 95.1±4.3): 39.6±1.4% | inhibition of tumor growth ([10]; day 56, from tumor weight vs control): 72.5% | average tumor weight ([10]; day 56, neamine 30 mg/kg s.c. twice weekly, control 620±310): 170 ± 50 mg | tumor growth rate in animals that did develop tumors ([10]; neamine 30 mg/kg s.c. twice weekly): decreased significantly | animals in which tumor establishment was prevented ([10]; neamine 30 mg/kg s.c. twice weekly for 8 weeks, n=12): 50% | animals with palpable tumors at day 20 ([10]; neamine 30 mg/kg s.c. twice weekly, day 20): 5 of the 12 | AKT expression and phosphorylation (IHC) (established PIN): not affected | established PIN phenotype (H&E) (established PIN): shrank established PIN | rRNA transcription / 47S rRNA level (ISH) (established PIN): inhibited | apoptotic index (TUNEL) (established PIN; neamine 10 mg/kg daily i.p. 4 weeks from week 12, untreated 0.89±0.12): 2.15±0.17 per duct | mice with PIN regression (established PIN; neamine 10 mg/kg daily i.p. 4 weeks, 12 mice): all 12 | percentage of glands having PIN (established PIN; neamine 10 mg/kg daily i.p. 4 weeks, before/control 95.2±3.2): 33% and 33.4±5.2%

NC[C@@H]1O[C@H](O[C@H]2[C@@H](O)[C@H](O[C@@H]3[C@@H](O)[C@H](N)C[C@H](N)[C@H]3O[C@H]3O[C@H](CO)[C@@H](O)[C@H](O)[C@H]3N)O[C@@H]2CO)[C@H](N)[C@@H](O)[C@@H]1O [paromomycin]
effect on nuclear translocation of ANG (ANG [1]): does not detectably block | effect on nuclear translocation of ANG (ANG [4]): do not block | anti-angiogenic activity (angiogenesis): not anti-angiogenic

CN[C@@H]1C[C@H]2O[C@@](C)([C@@H]1OC)n1c3ccccc3c3c4c(c5c6ccccc6n2c5c31)C(=O)NC4 [staurosporine]
effect on nuclear translocation of ANG (ANG [1]): no detectable effect

[H]/N=C(/N)N[C@H]1[C@H](O)[C@@H](O)[C@H](O[C@@H]2O[C@@H](C)[C@](O)(C=O)[C@H]2O[C@@H]2O[C@@H](CO)[C@H](O)[C@@H](O)[C@@H]2NC)[C@@H](N/C(N)=N\[H])[C@@H]1O [streptomycin]
acute LD50 (subcutaneous) in mice [11]: 600 mg/kg | effect on nuclear translocation of ANG (ANG [4]): do not block | anti-angiogenic activity (angiogenesis): not anti-angiogenic

gentamicin
effect on nuclear translocation of ANG (ANG [4]): do not block | anti-angiogenic activity (angiogenesis): not anti-angiogenic

neomycin
xenograft growth of PC-3 cells [3]: inhibit | effect on nuclear translocation of ANG (ANG [4]): blocks | 47S rRNA level / transcription (ISH) (AKT-induced PIN): inhibited | AKT phosphorylation (IHC) (AKT-induced PIN): not altered | localization of ANG in prostate epithelial cells (IHC) (AKT-induced PIN): extracellular | PIN formation (H&E) (AKT-induced PIN): prevented PIN formation | renal cortical levels relative to circulating levels in serum [12]: ≤ 20 times | AKT expression and phosphorylation (IHC) (established PIN): not different from that of the control group | established PIN phenotype (H&E) (established PIN): reversed | rRNA transcription / 47S rRNA level (ISH) (established PIN): dramatically decreased | apoptotic index (established PIN): 1.95±0.19 caspase 3 positive cells per duct | luminal cell size (established PIN; neomycin 4 weeks from week 12): restored cell size to normal | size of the ventral prostate of a representative mouse (established PIN; neomycin 4 weeks from week 12, control 69.8): 44.3 mm^3
